Our source for the inhibition, s-GOT level and s-GPT level values is ChEMBL document CHEMBL1130513, “New hepatoprotective saponins, bupleurosides III, VI, IX, and XIII, from Chinese Bupleuri Radix: Structure-requirements for the cytoprotective activity in primary cultured rat hepatocytes” (1997).

What all share (type): functional
The species entered for test [1] is Rattus norvegicus. Briefly: In vitro inhibitory effect on D-Galactosamine induced cytotoxicity in primary cultured rat hepatocytes at 1 ug/mL. As to conditions: Hepatocyte.
The subject of test [2] is Mus musculus. Briefly: Inhibitory effect on D-GalN/LPS (injected i.p. dose of 350 mg/kg and 10 ug/kg) induced hepatic injury in mice at 10 mg/kg, ip.
The species named for test [3] is Rattus norvegicus. Briefly: In vitro inhibitory effect on D-Galactosamine induced cytotoxicity in primary cultured rat hepatocytes at 0.3 ug/mL. As to conditions: Hepatocyte.
For test [4], the species on record is Rattus norvegicus. Briefly: In vitro inhibitory effect on D-Galactosamine induced cytotoxicity in primary cultured rat hepatocytes at 3 ug/mL. As to conditions: Hepatocyte.
The species named for test [5] is Rattus norvegicus. Briefly: In vitro inhibitory effect on D-Galactosamine induced cytotoxicity in primary cultured rat hepatocytes at 30 ug/mL. The conditions noted are these: Hepatocyte.
For test [6], the species on record is Rattus norvegicus. Briefly: In vitro inhibitory effect on D-Galactosamine induced cytotoxicity in primary cultured rat hepatocytes at 10 ug/mL. The conditions noted are these: Hepatocyte.
Test [7] concerns Mus musculus. Briefly: Inhibitory effect on D-GalN/LPS (injected i.p. dose of 350 mg/kg and 10 ug/kg) induced hepatic injury in mice at 20 mg/kg, ip.

Usually inhibition stands for the drop in the measured response relative to a control, in per cent.

As to `C[C@H]1O[C@@H](O[C@H]2CC[C@@]3(C)C(CC[C@]4(C)C3[C@H](O)C=C3C5CC(C)(C)CC[C@]5(CO)[C@@H](O)C[C@]34C)[C@]2(C)CO)[C@H](O)[C@@H](O[C@@H]2O[C@H](CO)[C@@H](O)[C@H](O)[C@H]2O)[C@H]1O` (stereo not given in full), in test [1], the inhibition at 1 µg/mL turned out to be 16.7%. Further, in test [2], the s-GOT level was 1261 Karmen units and the s-GPT level was 1483 Karmen units. In test [3], the inhibition at 0.3 µg/mL came out at 6.8%. Further, the inhibition at 3 µg/mL in test [4] was 35.6%. Also, the inhibition at 30 µg/mL in test [5] was 46.5%. Besides, the inhibition at 10 µg/mL in test [6] stood at 43.1%.
In test [7], `C[C@H]1O[C@@H](O[C@H]2CC[C@@]3(C)C(CC[C@]4(C)C3C(=O)C=C3C5CC(C)(C)CC[C@]5(CO)[C@@H](O)C[C@]34C)[C@]2(C)CO)[C@H](O)[C@@H](O[C@@H]2O[C@H](CO)[C@@H](O)[C@H](O)[C@H]2O)[C@H]1O` (stereo not given in full) had a s-GOT level of 1404 Karmen units and a s-GPT level of 1530 Karmen units. For the same compound, the inhibition at 1 µg/mL in test [1] stood at 16.9%. Moreover, in test [2], the s-GOT level came out at 7211 Karmen units and the s-GPT level is 7887 Karmen units. In addition, the inhibition at 0.3 µg/mL in test [3] came out at 5.5%. In test [4], the inhibition at 3 µg/mL worked out at 44.5%. Moreover, in test [5], the inhibition at 30 µg/mL stood at 90.9%. In addition, the inhibition at 10 µg/mL in test [6] was 72.8%.
As to `C[C@H]1O[C@@H](O[C@H]2CC[C@@]3(C)C(CC[C@]4(C)C3[C@H](O)CC3C5=CC(C)(C)CC[C@]5(CO)[C@@H](O)C[C@]34C)[C@]2(C)CO)[C@H](O)[C@@H](O[C@@H]2O[C@H](CO)[C@@H](O)[C@H](O)[C@H]2O)[C@H]1O` (stereo not given in full), the inhibition at 1 µg/mL in test [1] worked out at 39.7%. In test [2], this compound registered a s-GOT level of 1209 Karmen units and a s-GPT level of 1265 Karmen units. Moreover, the inhibition at 0.3 µg/mL in test [3] worked out at 15.8%. Also, the inhibition at 3 µg/mL in test [4] was 59.4%. For the same compound, the inhibition at 30 µg/mL in test [5] worked out at 64.7%. Besides, the inhibition at 10 µg/mL in test [6] was determined as 69.5%.
Regarding `C[C@@H]1O[C@@H](O[C@H]2[C@@H](O)[C@@H](CO[C@@H]3O[C@H](CO)[C@@H](O)[C@H](O)[C@H]3O)O[C@@H](OC3CC[C@@]4(C)C(CC[C@]5(C)C4C=CC4=C6C[C@@](C)(CO)CC[C@]6(CO)[C@H](O)C[C@]45C)[C@]3(C)CO)[C@@H]2O)[C@H](O)[C@H](O)[C@H]1O` (stereo not given in full) [BUPLEUROSIDE XII], in test [1], the inhibition at 1 µg/mL is 0.3%. Moreover, the inhibition at 0.3 µg/mL in test [3] worked out at 0.1%. In test [4], the inhibition at 3 µg/mL is -0.8%. Further, in test [5], the inhibition at 30 µg/mL worked out at 0.8%. In addition, the inhibition at 10 µg/mL in test [6] came out at 2%.
Regarding `C[C@H]1O[C@@H](OC2CC[C@@]3(C)C(CC[C@]4(C)C3C=CC3=C5CC(C)(C)CC[C@]5(CO)[C@@H](O)C[C@]34C)[C@]2(C)CO)[C@H](O)[C@@H](O[C@@H]2O[C@H](CO)[C@@H](O)[C@H](O)[C@H]2O)[C@H]1O` (stereo not given in full), in test [1], the inhibition at 1 µg/mL is -1.4%. In addition, in test [3], the inhibition at 0.3 µg/mL stood at 0.1%. The inhibition at 3 µg/mL in test [4] came out at 4.3%. Further, the inhibition at 30 µg/mL in test [5] is -5.1%. Further, the inhibition at 10 µg/mL in test [6] was determined as 8.7%.
In test [7], `C[C@]12CCC(=O)C=C1CCC1[C@@H]2[C@@H](O)C[C@@]2(C)[C@H]1CC[C@]2(O)C(=O)CO` (single isomer, unassigned) [HYDROCORTISONE] showed a s-GOT level of 331 Karmen units and a s-GPT level of 202 Karmen units.
Take `C[C@H]1O[C@@H](O[C@H]2CC[C@@]3(C)C(CC[C@]4(C)C3C=C[C@]35OC[C@@]6(CCC(C)(C)CC63)[C@H](O)C[C@]54C)[C@]2(C)CO)[C@H](O)[C@@H](O[C@@H]2O[C@H](CO)[C@@H](O)[C@H](O)[C@H]2O)[C@H]1O` (stereo not given in full): the inhibition at 1 µg/mL in test [1] came out at 2.3%. Besides, the inhibition at 0.3 µg/mL in test [3] worked out at 3.9%. Moreover, the inhibition at 3 µg/mL in test [4] was -4.2%. In addition, the inhibition at 30 µg/mL in test [5] was -5.3%. Further, in test [6], the inhibition at 10 µg/mL was -4.3%.
